Laboratory results: patent US20120022048A1, “Anti-proliferative substituted pyrazolo[3,4-d]pyrimidines derivatives (SPP) to inhibit immune activation, virus replication and tumor growth” (priority 2010, published 2012)
Entries after “also recorded” stand apart in the source; their conditions may differ.

How the values were obtained:
HIV-1 NL 4.3 [1] = assay: HIV-1 replication in activated T cells (PBMC, p24 Ag ELISA); format: cell-based
Procedure, shortened: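 PBMC from healthy donors, stimulated two days with PHA 5 μg/ml, were infected with HIV-1 NL 4.3 and given IL-2 (20 U/ml) and compound at 10^5 cells per well. After 7 days at 37° C, supernatant p24 Ag was measured by ELISA against an untreated control.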

[2] = test system: primary human CD4 T-lymphocytes; assay: Apoptosis in primary CD4 T cells (Annexin V and 7-AAD staining); format: cell-based
Procedure, shortened: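 Resting primary human CD4 T cells from healthy donors were PHA-activated (5 μg/ml) at day 5, with IL-2 (20 U/ml) added at day 7. Compounds were tested at 10 μM. At day 10, Annexin V/7-AAD staining gave percentage of total apoptotic events.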

[3] = test system: Human peripheral blood mononuclear cells (PBMC); conditions: human, 7 days, 10 μM
[4] = test system: Human peripheral blood mononuclear cells (PBMC); assay: Cell cycle analysis of anti-CD3/anti-CD28 stimulated PBMC (Ki-67 and 7-AAD flow cytometry); format: cell-based; conditions: 24 hours treatment; compared to the not treated control; FIG. 6
Procedure: A 48 well plate was coated with anti-CD3 antibody by dispensing 100 microliter of a 10 μg/ml antibody solution followed by overnight incubation at 4° C. Human peripheral blood mononuclear cells (PBMC), obtained from healthy, normal donors, were then plated (2×10^6 cells per well in 1 ml) in complete culture medium supplemented with anti-CD28 antibody (2 μg/ml). Stimulated cells were cultured for 2 days then treated with HU, CsA, and VS1-002 to induce cell cycle arrest.

HIV-1 NL 4.3 [5] = assay: HIV-1 replication in quiescent CD4 T cells (p24 Ag ELISA); format: cell-based
Procedure, shortened: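 Resting human CD4 T cells from healthy donors were infected, then stimulated with PHA 5 μg/ml on day 5 and IL-2 20 U/ml on day 7. Compounds were tested at 10 μM, with HU 100 μM ± ddI 2 μM as comparators. p24 was measured by ELISA on day 10 and expressed as % of untreated control.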

[6] = test system: primary human CD4 T-lymphocytes; assay: Cell hyperproliferation in primary T cells (CFSE staining, mitotic index); format: cell-based
Procedure, shortened: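 Primary human CD4 T cells were activated with PHA (5 μg/ml) on day 5, and IL-2 (20 U/ml) was added on day 7. Compounds were tested at 10 μM and cells harvested on day 10. Proliferation was measured by CFSE dilution as a normalized mitotic index, and apoptosis by Annexin V/7-AAD staining on day 10.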

[7] = SPPs 10 μM, compared with HU 100 μM, HU+ddI or untreated control

CCCCNc1nc(SCC)nc2c1cnn2CC(Cl)c1ccccc1 (stereo not shown) [VS1-002, N-butyl-1-(2-chloro-2-phenylethyl)-6-(ethylthio)-1H-pyrazolo[3,4-d]pyrimidin-4-amine]
inhibition at 10 µM (HIV-1 NL 4.3 [1]; Human immunodeficiency virus 1, T-cell, activated T cells, 10 μM, read-out: inhibition of p24 production / HIV replication compared to untreated control): 86% | anti-HIV activity in activated T cells (in words) (HIV-1 NL 4.3 [1]; [7]): inhibited HIV replication in activated T cells | Antiviral activity in activated cells (HIV-1 NL 4.3 [1]; class symbol, Table 6): +++ (excellent (+++, greater than 70% activity)) | less proapoptotic effect than HU 100 μM+ddI 2 μM combination ([2]; 10 μM, spider graph FIG. 3): more than 20% | apoptotic effect (in words) [2, 7]: did not affect the percentage of apoptotic events; also recorded: not proapoptotic | % viability [3]: 108.9 ± 8.7% | less toxicity than HU 100 μM+ddI 2 μM combination [3]: 20% | effect on cell cycle phases (in words) [4]: decreased the percentage of cells in S phase with an increase in the percentage of cells in G1 phase | inhibition at 10 µM (HIV-1 NL 4.3 [5]; Human immunodeficiency virus 1, CD4+ T, quiescent cells, 10 μM, read-out: reduction of HIV-1 p24 production / inhibition of HIV replication compared to untreated control): 90% | anti-HIV activity in quiescent cells (in words) (HIV-1 NL 4.3 [5]; [7]): antiviral activity in both quiescent and in hyperactivated cells | Antiviral activity in quiescent cells (HIV-1 NL 4.3 [5]; class symbol, Table 6): +++ (excellent (+++, greater than 70% activity)) | anti-proliferative activity (in words) ([6]; SPPs 10 μM, compared with HU 100 μM, Imatinib 10 μM, HU+ddI or untreated control): as effective as 100 μM HU; also recorded: comparable to that of 100 μM HU and superior to that of Imatinib | Anti-proliferative capacity ([6]; class symbol, Table 6): +++ (excellent (+++, greater than 70% activity))
